Data from patent US20220089609A1, “SUBSTITUTED QUINAZOLINONE DERIVATIVES AND THEIR USE AS POSITIVE ALLOSTERIC MODULATORS OF MGLUR4” (DOMAIN THERAPEUTICS, priority 2018, published 2022).
“And” between values parts separate entries of the source, which are not always exact repeats. Identical values can stand only once. Counter-ions that a name gives are not always drawn.

Assays:
human mGluR4 (hmGluR4) = molecular target: T1, human mGluR4 (hmGluR4) (Homo sapiens, UniProt Q14833); assay: Calcium assay EC50 determination, positive allosteric modulator activity on hmGluR4 transiently over-expressed in HEK-293 cells; assay type: cell-based; conditions: PAM mode with EC20 glutamate; hmGluR4 in HEK-293 cells; intracellular calcium (Fluo4AM); read-out: mGluR4 positive allosteric modulator activity, half maximal effective concentration (EC50)
T1 construct: expressed in transfected cells; host or cells: HEK-293 cells, transient co-transfection by electroporation
T1 sequence (Q14833 33-912): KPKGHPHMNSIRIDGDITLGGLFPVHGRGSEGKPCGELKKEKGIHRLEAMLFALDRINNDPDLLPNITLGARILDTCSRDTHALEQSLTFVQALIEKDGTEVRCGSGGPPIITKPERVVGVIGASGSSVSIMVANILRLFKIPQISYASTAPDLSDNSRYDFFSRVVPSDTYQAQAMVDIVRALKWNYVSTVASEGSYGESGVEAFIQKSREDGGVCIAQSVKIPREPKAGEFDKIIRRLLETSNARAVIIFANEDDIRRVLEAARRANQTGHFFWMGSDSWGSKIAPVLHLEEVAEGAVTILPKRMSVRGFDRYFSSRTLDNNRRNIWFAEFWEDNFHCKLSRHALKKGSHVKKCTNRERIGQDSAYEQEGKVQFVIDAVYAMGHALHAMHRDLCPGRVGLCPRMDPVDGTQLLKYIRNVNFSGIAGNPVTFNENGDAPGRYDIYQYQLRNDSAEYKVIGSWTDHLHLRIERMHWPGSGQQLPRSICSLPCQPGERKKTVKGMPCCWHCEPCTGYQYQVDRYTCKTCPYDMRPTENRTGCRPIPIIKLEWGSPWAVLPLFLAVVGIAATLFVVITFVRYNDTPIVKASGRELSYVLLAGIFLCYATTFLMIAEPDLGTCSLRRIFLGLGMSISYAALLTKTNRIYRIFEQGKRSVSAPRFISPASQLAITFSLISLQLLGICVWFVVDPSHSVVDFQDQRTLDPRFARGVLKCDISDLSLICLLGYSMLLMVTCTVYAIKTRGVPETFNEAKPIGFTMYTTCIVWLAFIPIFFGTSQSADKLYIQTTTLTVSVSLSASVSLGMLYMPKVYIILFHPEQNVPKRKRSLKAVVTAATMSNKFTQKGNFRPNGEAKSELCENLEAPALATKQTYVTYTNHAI
How it was run: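 HEK-293 cells transiently co-transfected with hmGluR4, chimeric G protein and glutamate transporters; Fluo4AM calcium read (ex 485/em 525 nm) on FLIPR Tetra. Compound alone 10 min for agonism, then EC20 glutamate with 3 min recording for PAM activity, versus buffer or EC20 glutamate basal.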

| SMILES | melting point [°C] | EC50 (human mGluR4 (hmGluR4)) |
| --- | --- | --- |
| Cc1cc(CCN2CCOCC2)nc2c(=O)[nH]c(-c3cc(C(F)(F)F)ccn3)nc12.Cl | 168 to 173 |  |
| Cc1cccc(-c2nc3ccc(OCCCc4ccncc4)cc3c(=O)[nH]2)n1 (as salt: hydrochloride) [Compound 12, 2-(6-methyl-2-pyridyl)-6-[3-(4-pyridyl)propoxy]-3H-quinazolin-4-one dihydrochloride] | > 250 |  |
| Cc1cnc(-c2nc3ccc(OCCCc4ccncc4)cc3c(=O)[nH]2)cn1 (as salt: hydrochloride) [Compound 13, 2-(5-methylpyrazin-2-yl)-6-[3-(4-pyridyl)propoxy]-3H-quinazolin-4-one dihydrochloride] | > 250 |  |
| O=c1[nH]c(-c2cc(Cl)ccn2)nc2ccc(OCCCc3ccncc3)cc12 (as salt: hydrochloride) [Compound 15, 2-(4-chloro-2-pyridyl)-6-[3-(4-pyridyl)propoxy]-3H-quinazolin-4-one hydrochloride] | 232 to 241 |  |
| O=c1[nH]c(-c2cccc(C(F)(F)F)n2)nc2ccc(OCCCc3ccncc3)cc12 (as salt: hydrochloride) [Compound 17, 6-[3-(4-pyridyl)propoxy]-2-[6-(trifluoromethyl)-2-pyridyl]-3H-quinazolin-4-one hydrochloride] | 238 to 250 |  |
| O=c1[nH]c(-c2cc(C3CC3)ccn2)nc2ccc(OCCCc3ccncc3)cc12 (as salt: hydrochloride) [Compound 19, 2-(4-cyclopropyl-2-pyridyl)-6-[3-(4-pyridyl)propoxy]-3H-quinazolin-4-one dihydrochioride] | 110 to 156 |  |
| Cc1nc(-c2nc3ccc(OCCCc4ccncc4)cc3c(=O)[nH]2)co1 (as salt: hydrochloride) [Compound 22, 2-(2-Methyl-oxazol-4-yl)-6-(3-pyridin-4-yl-propoxy)-3H-quinazolin-4-one hydrochloride] | > 250 |  |
| Cc1cc(CN2CCOCC2)cc2c(=O)[nH]c(-c3cc(C(F)(F)F)ccn3)nc12 (as salt: hydrochloride) [Compound 115, 8-methyl-6-(morpholinomethyl)-2-[4-(trifluoromethyl)-2-pyridyl]-3H-quinazolin-4-one hydrochloride] | > 250 |  |
| Cc1cc(CCN2CCOCC2)cc2c(=O)[nH]c(-c3cc(C(F)(F)F)ccn3)nc12 (as salt: hydrochloride) [Compound 117, 8-methyl-6-(2-morpholinoethyl)-2-[4-(trifluoromethyl)-2-pyridyl]-3H-quinazolin-4-one hydrochloride] | > 250 |  |
| Cc1cc(CCN2CCOCC2)cc2c(=O)[nH]c(-c3cc4cccn4cn3)nc12 (as salt: hydrochloride) [Compound 124, 8-Methyl-6-(2-morpholin-4-yl-ethyl)-2-pyrrolo[1,2-c]pyrimidin-3-yl-3H-quinazolin-4-one hydrochloride] | > 250 |  |
| Cc1cc(CN2CCN(C)CC2)cc2c(=O)[nH]c(-c3cc4ccsc4cn3)nc12 (as salt: hydrochloride) [Compound 132, 8-Methyl-6-[(4-methylpiperazin-1-yl)methyl]-2-thieno[2,3-c]pyridin-5-yl-3H-quinazolin-4-one dihydrochloride] | > 250 |  |
| COC1CCN(Cc2cc(C)c3nc(-c4cc5sccc5cn4)[nH]c(=O)c3c2)CC1 (as salt: hydrochloride) [Compound 152, 6-[(4-Methoxy-1-piperidyl)methyl]-8-methyl-2-thieno[3,2-c]pyridin-6-yl-3H-quinazolin-4-one hydrochloride] | 205 to 215 |  |
| Cc1cc(CN2CCOC(C)(C)C2)cc2c(=O)[nH]c(-c3cc4sccc4cn3)nc12 (as salt: hydrochloride) [Compound 153, 6-[(2,2-Dimethylmorpholin-4-yl)methyl]-8-methyl-2-thieno[3,2-c]pyridin-6-yl-3H-quinazolin-4-one hydrochloride] | 220 to 240 |  |
| O=c1[nH]c(-c2cc(C(F)(F)F)ccn2)nc2c(Cl)cc(CCN3CCOCC3)cc12 (as salt: hydrochloride) [Compound 154, 8-Chloro-6-(2-morpholinoethyl)-2-(4-(trifluoromethyl)pyridin-2-yl)quinazolin-4(3H)-one hydrochloride] | > 250 |  |
| Cc1cc(CN2CCC(C(=O)N(C)C)CC2)cc2c(=O)[nH]c(-c3cc4sccc4cn3)nc12 (as salt: hydrochloride) [Compound 156, N,N-Dimethyl-14(8-methyl-4-oxo-2-(thieno[3,2-c]pyridin-6-yl)-3,4-dihydroquinazolin-6-yl)methyl)piperidine-4-carboxamide hydrochloride] | 215 to 230 |  |
| COCC1CCN(Cc2cc(C)c3nc(-c4cc5sccc5cn4)[nH]c(=O)c3c2)CC1 (as salt: hydrochloride) [Compound 157, 6-((4-(Methoxymethyl)piperidin-1-yl)methyl)-8-methyl-2-(thieno[3,2-c]pyridin-6-yl)quinazolin-4(3H)-one hydrochloride] | 200 to 210 |  |
| O=c1[nH]c(-c2cc3cccn3cn2)nc2ccc(OCCCc3ccncc3)cc12 [Compound 1, 6-(3-pyridin-4-yl-propoxy)-2-pyrrolo[1,2-c]pyrimidin-3-yl-3H-quinazolin-4-one] | 202 to 206 | 0.1 to 1 µM |

| SMILES | melting point [°C] | EC50 (human mGluR4 (hmGluR4)) |
| --- | --- | --- |
| Cl.O=c1[nH]c(-c2cc3ccccc3cn2)nc2ccc(OCCCc3ccncc3)cc12 [Compound 2, 2-Isoquinolin-3-yl-6-(3-pyridin-4-yl-propoxy)-3H-quinazolin-4-one hydrochloride] | > 250 | 1 to 10 µM |
| Cl.O=c1[nH]c(-c2cc3sccc3cn2)nc2ccc(OCCCc3ccncc3)cc12 [Compound 3, 6-(3-Pyridin-4-yl-propoxy)-2-thieno[3,2-c]pyridin-6-yl-3H-quinazolin-4-one hydrochloride] | > 250 | 0.1 to 1 µM and < 1 µM |
| Cl.O=c1[nH]c(-c2cc3ccsc3cn2)nc2ccc(OCCCc3ccncc3)cc12 [Compound 4] | > 250 |  |
| Cl.O=c1[nH]c(-c2ccccn2)nc2ccc(OCCCc3ccncc3)cc12 [Compound 5, 2-Pyridin-2-yl-6-(3-pyridin-4-yl-propoxy)-3H-quinazolin-4-one hydrochloride] | > 250 | 0.1 to 1 µM and < 1 µM |
| COc1ccnc(-c2nc3ccc(OCCCc4ccncc4)cc3c(=O)[nH]2)c1.Cl [Compound 7, 2-(4-methoxy-pyridin-2-yl)-6-(3-pyridin-4-yl-propoxy)-3H-quinazolin-4-one hydrochloride] | > 250 | 1 to 10 µM |
| Cl.O=c1[nH]c(-c2ccc(F)cn2)nc2ccc(OCCCc3ccncc3)cc12 [Compound 8, 2-(5-Fluoro-pyridin-2-yl)-6-(3-pyridin-4-yl-propoxy)-3H-quinazolin-4-one hydrochloride] | > 250 | 1 to 10 µM |
| Cl.O=c1[nH]c(-c2cc(C(F)(F)F)ccn2)nc2ccc(OCCCc3ccncc3)cc12 [Compound 9, 6-(3-Pyridin-4-yl-propoxy)-2-(4-trifluoromethyl-pyridin-2-yl)-3H-quinazolin-4-one hydrochloride] | 239 to 245 | 0.1 to 1 µM and < 1 µM |
| Cl.O=c1[nH]c(-c2ccc(C(F)(F)F)cn2)nc2ccc(OCCCc3ccncc3)cc12 [Compound 10, 6-[3-(4-pyridyl)propoxy]-2-[5-(trifluoromethyl)-2-pyridyl]-3H-quinazolin-4-one hydrochloride] | > 250 | 0.1 to 1 µM |
| COCCOc1ccc2nc(-c3cc4cccn4cn3)[nH]c(=O)c2c1 [Compound 34, 6-(2-Methoxy-ethoxy)-2-pyrrolo[1,2-c]pyrimidin-3-yl-3H-quinazolin-4-one] | 181 to 187 | > 10 µM |
| Cl.O=c1[nH]c(-c2cc3sccc3cn2)nc2ccc(OCCN3CCOCC3)cc12 [Compound 35, 6-(2-Morpholin-4-yl-ethoxy)-2-thieno[3,2-c]pyridin-6-yl-3H-quinazolin-4-one hydrochloride] | > 250 | 1 to 10 µM |
| Cc1cc(CN2CCN(C)C(=O)C2)cc2c(=O)[nH]c(-c3cc4sccc4cn3)nc12 [Compound 147, 8-Methyl-6-[(4-methyl-3-oxo-piperazin-1-yl)methyl]-2-thieno[3,2-c]pyridin-6-yl-3H-quinazolin-4-one hydrochloride] |  | ≤ 0.1 µM |
| COC1CCN(Cc2cc(C)c3nc(-c4cc5sccc5cn4)[nH]c(=O)c3c2)CC1 [Compound 152, 6-[(4-Methoxy-1-piperidyl)methyl]-8-methyl-2-thieno[3,2-c]pyridin-6-yl-3H-quinazolin-4-one hydrochloride] |  | ≤ 0.1 µM |
| Cc1cc(CN2CCOC(C)(C)C2)cc2c(=O)[nH]c(-c3cc4sccc4cn3)nc12 [Compound 153, 6-[(2,2-Dimethylmorpholin-4-yl)methyl]-8-methyl-2-thieno[3,2-c]pyridin-6-yl-3H-quinazolin-4-one hydrochloride] |  | ≤ 0.1 µM |
| O=c1[nH]c(-c2cc(C(F)(F)F)ccn2)nc2c(Cl)cc(CCN3CCOCC3)cc12 [Compound 154, 8-Chloro-6-(2-morpholinoethyl)-2-(4-(trifluoromethyl)pyridin-2-yl)quinazolin-4(3H)-one hydrochloride] |  | 0.1 to 1 µM |
| Cc1cc(CN2CCC(C(=O)N(C)C)CC2)cc2c(=O)[nH]c(-c3cc4sccc4cn3)nc12 [Compound 156, N,N-Dimethyl-14(8-methyl-4-oxo-2-(thieno[3,2-c]pyridin-6-yl)-3,4-dihydroquinazolin-6-yl)methyl)piperidine-4-carboxamide hydrochloride] |  | ≤ 0.1 µM |
| COCC1CCN(Cc2cc(C)c3nc(-c4cc5sccc5cn4)[nH]c(=O)c3c2)CC1 [Compound 157, 6-((4-(Methoxymethyl)piperidin-1-yl)methyl)-8-methyl-2-(thieno[3,2-c]pyridin-6-yl)quinazolin-4(3H)-one hydrochloride] |  | 0.1 to 1 µM |
